Columns and labels:
[1] = tested on: ER negative HeLa cells; conditions: 10-20 μM; cited from earlier work
[2] = tested on: ZR-75 cells; conditions: 5 μM; see Wang 2006; cited from earlier work
[3] = tested on: BT474 cells; conditions: 5 μM; see Wang 2006; cited from earlier work
[4] = tested on: ERα negative MDA-MB-231 cells; experiment: MDA-MB-231 cell growth / toxicity assay (MTS); type: cell-based, human
Description: ERα negative MDA-MB-231 human breast cancer cells were used to test for generalized toxicity of the test compounds. To parallel the reporter gene assays in stably transfected T47D breast cancer cells, 5,000 MDA-MB-231 cells per well were plated in a 96 well plate. The cells were maintained in the medium described above for the T47D cells. One day after plating, the same concentration of test compound used in the reporter gene assay (up to 30 μM) was added. After 24 h the MTS assay was carried out as described above. A more stringent toxicity assay parallels the assay for inhibition of estrogen-dependent growth of BG-1 cells. 250 MDA-MB-231 cells were plated per well and maintained and assayed as described for the BG-1 cells. Several compounds without detectable toxicity in the 24-h assay inhibited MDA-MB-231 cell growth in the 5-6 day assay.
Assays for Cell Growth and Viability. Cells were maintained in the media listed above containing CD-treated serum for at least 4 days prior to the experiment. To minimize cell aggregation, MCF-7 cells were harvested in 10 mM Hepes, pH 7.4, 1 mM EDTA. Other cell lines were harvested in trypsin-EDTA. 1,000 cells were plated into each well of a 96 well plate. For slow growing ZR-75 cells, 2,000 cells were plated/well. The cells were maintained in medium containing CD-treated serum for 24 hours. At 24 hours the medium was changed and E2 and DMSO vehicle or TPSF in DMSO was added. The medium was replaced after 2 days (except for BT474 cells whose medium was not changed). After 4 days viable cells were determined using a cell viability test, Promega CellTiter 96 Aqueous One Solution Cell Proliferation Assay (MTS) (Promega, Wis.).

[5] = target: T1, GR (Rattus norvegicus, UniProt P06536); experiment: GR transactivation, MMTV-luciferase reporter in T47D cells; type: cell-based, human
T1 construct: expressed in transfected cells; host or cells: T47D/A1-2
T1 sequence (P06536 1-795): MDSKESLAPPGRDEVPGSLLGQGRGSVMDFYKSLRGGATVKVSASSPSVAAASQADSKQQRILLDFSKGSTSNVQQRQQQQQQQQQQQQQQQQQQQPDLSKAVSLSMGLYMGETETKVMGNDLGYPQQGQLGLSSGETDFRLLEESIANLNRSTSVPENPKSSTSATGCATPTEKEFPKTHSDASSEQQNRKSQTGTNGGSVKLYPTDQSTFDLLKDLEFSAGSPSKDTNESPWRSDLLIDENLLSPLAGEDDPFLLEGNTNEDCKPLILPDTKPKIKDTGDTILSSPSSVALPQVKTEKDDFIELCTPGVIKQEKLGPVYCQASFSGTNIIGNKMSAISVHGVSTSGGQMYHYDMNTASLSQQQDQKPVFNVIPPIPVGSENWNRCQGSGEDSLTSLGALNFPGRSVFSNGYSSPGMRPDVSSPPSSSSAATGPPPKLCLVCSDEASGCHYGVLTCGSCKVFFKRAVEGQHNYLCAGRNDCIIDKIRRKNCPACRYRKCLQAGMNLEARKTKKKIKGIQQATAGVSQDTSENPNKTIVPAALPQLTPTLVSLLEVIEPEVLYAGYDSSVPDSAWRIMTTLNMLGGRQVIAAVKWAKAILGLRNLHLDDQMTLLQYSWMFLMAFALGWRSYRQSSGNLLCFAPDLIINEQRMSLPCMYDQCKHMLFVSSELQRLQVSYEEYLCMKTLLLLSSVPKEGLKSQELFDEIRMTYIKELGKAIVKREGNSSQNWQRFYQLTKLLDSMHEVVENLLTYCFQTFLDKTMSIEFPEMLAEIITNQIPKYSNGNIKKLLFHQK
Description: The T47D-KBluc cells stably express an (ERE)3-luciferase reporter gene (38). Cells were maintained in phenol red-free RPMI 1640 with 2 mM L-glutamine, 1.5 g/l sodium bicarbonate, 4.5 g/l glucose, 10 mM Hepes, pH 7.5, 1 mM sodium pyruvate, 10% FBS (Atlanta Biological, Atlanta, Ga.) and antibiotics. Four days before E2 induction, the cells were switched to the above medium, with 10% 2× charcoal-dextran-treated calf serum instead of FBS. 200,000 cells/well were transferred to each well of a 24-well plate. After 24 h the indicated concentrations of the test compounds were added in DMSO and E2 was added to 20 pM. After 24 h cells were washed once in PBS, and 150 μl 1× Passive Lysis Buffer (Promega, Madison Wis.) was used to lyse the cells. Luciferase activity was determined using firefly luciferase reagents from Promega (Madison, Wis.). T47D cells stably transfected to express GR and a mouse mammary tumor virus luciferase reporter that responds to liganded GR and PR were maintained and assayed in medium containing 5 nM progesterone for PR assays, or 2.5 nM dexamethsaone for GR assays, essentially as described (39).
Reporter Gene Assays. TPSF was identified by reporter gene assays comparing the ability of ˜200 compounds structurally related to TPBM (see reference 19) to inhibit transcription of a stably transfected (ERE)3-luciferase reporter gene in T47D-KBluc breast cancer cells (20). AR was assayed in stably transfected HeLa cells and GR was assayed in stably transfected T47D cells maintained as described above. Four days before each experiment the cells were switched to medium containing CD-treated serum as described above. The HeLaAR cells were plated at 100,000 cells/well and the T47D/A1-2 and T47D-KBluc cells were plated at 200,000 cells/well in 1 ml of their respective media in 24-well plates. After 24 hours the indicated concentrations of E2, dihydrotestosterone (DHT) or dexamethasone (Dex) and DMSO vehicle, with or without TPSF, were added to each well. After 24 hours, the cells were washed once in phosphate buffered saline and lysed using 100 μl of 1× Passive Lysis Buffer (Promega, Madison Wis.). Luciferase activity was determined using BrightGlo firefly luciferase reagent from Promega (Madison, Wis.).

[6] = Short-term mouse toxicity study; type: in vivo; conditions: up to 400 mg/kg

O=C(c1ccc(OCCN2CCCCC2)cc1)c1c(-c2ccc(O)cc2)sc2cc(O)ccc12 [raloxifene]
effect in ER negative HeLa cells [1]: induce caspase-dependent apoptosis

disulfide benzamide [DIBA]
inhibition of growth of ZR-75 cells [2]: ~20% | effect on growth of tamoxifen-resistant BT474 cells [3]: did not inhibit

4-hydroxytamoxifen [OHT, reference compound]
effect on MDA-MB-231 cells ([4]; 10 μM): killed many | effect on MDA-MB-231 cells ([4]; 20 μM): all the cells were killed | effect in ER negative HeLa cells [1]: induce caspase-dependent apoptosis

Cn1c(=O)c2[nH]c(Cc3ccc4ccccc4c3)nc2n(C)c1=O [Compound 14147]
effect on GR [5]: virtually no effect

CCCCCCCc1nc2c([nH]1)c(=O)n(C)c(=O)n2C [Compound 101794]
toxicity in a short-term mouse study [6]: no toxicity
